Experimental findings from paper PMC7066245 (Scientific Reports, 2020) are described below.

As a reminder, the IC50 is the concentration that gives 50% inhibition.

Assay [1] concerns THP1 acute monocytic leukemia cells. Nature of the assay: cells. The assay is classed as cell-based, human. As to conditions: read-out: IC50 THP1.
Assay [2] deals with RPMI8226 myeloma cancer cells. Put plainly: cells. The assay is classed as cell-based, human. To be noted: read-out: IC50 RPMI8226.
Assay [3] relates to HL60 promyelocytic leukemia cells. Put plainly: cells. The assay is classed as cell-based, human. To be noted: read-out: IC50 HL60.
Assay [4] concerns THP1 cells. It counts as cell-based, human. Details: concentration or dose not given beside the values.
The subject of assay [5] is THP1 cells. Put plainly: annexin V/propidium iodide apoptosis assay, THP1. The assay is classed as cell-based, human. As to conditions: THP1, 48 h, 0.3 μM, annexin V/PI. From the text: (§1) Double staining of cells with Annexin V and propidium iodide (PI) was used according to the protocol described in our previous article. This method is a useful tool for distinguishing viable cells (unstained with either fluorochrome) from early apoptotic cells (stained only with Annexin V), late apoptotic (stained with Annexin V and propidium iodide) and necrotic (dead) cells (stained only with PI).
(§2) Briefly, 5 × 10^5 control and drug treated cells were washed with cold PBS and resuspended in 500 μl binding buffer (delivered from producer) that contained 5 μl of Annexin V fluorescein isothiocyanate (FITC), 5 μl of PI and stained for 15 minutes in room temperature. Finally, at least 10^4 cells were analyzed for FITC and PI fluorescence (Ex ~488 nm; Em ~530 nm) using a flow cytometer (LSR II, Becton Dickinson). The cells stained with the annexin V/propidium iodide mixture were then visualized using fluorescence microscopy (Olympus IX70, Japan), magnification × 200.

The subject of assay [6] is RPMI8226 cells. It counts as cell-based, human.
Assay [7] deals with caspase-3/-7 in HL60 cells. It counts as cell-based, human.
For assay [8], the system named is normal peripheral blood-derived mononuclear cells (PBMC). Nature of the assay: cells. It counts as cell-based. To be noted: read-out: IC50 PBMC.
For assay [9], the system named is intracellular calcium (Ca2+) in HL60 cells. Put plainly: intracellular calcium measurement (Fluo-4-NW), HL60. To be noted: HL60, IC50 dose. The assay is classed as cell-based, human. Here is the method:
(§3) Intracellular calcium level was determined using the fluorescent probe Fluo-4NW according to the protocol described in our previous article. After entering the cell, Fluo-4NW is converted by cytosolic hydrolases to the active form, having the possibility of binding of calcium ions. As a result of joining of calcium ions, the probe emits fluorescence (λem = 538 nm) after excitation with light of wavelength 485 nm.
(§4) Cells were cultured and treated with investigated compounds on Petri dishes. Next, the cells were plated in 96-well black fluorimetric plates (2 × 10^4 cells/well). The growth medium was removed and the cells were washed with PBS in order to eliminate sources of baseline fluorescence. Finally a dye loading solution (Fluo-4-NW dye, 4-[(Dipropylamino)sulfonyl] benzoic acid (Probenecid) - used to inhibit extrusion of the indicator out of the cell by organic anion transporters, Hanks’ balanced salt solution (HBSS), 20 mM N-(2- hydroxyethyl)piperazine-N’-(2-ethanesulfonic acid) buffer solution (HEPES)) was added in a volume of 100 μl per well and incubated for 30 min in the total darkness at 37 °C, and then for next 30 min. at room temperature. The measurement was done on Fluoroskan Ascent FL microplate reader (Labsystems, Sweden) using 494 nm excitation and 516 nm emission wavelengths.
A general note: A change in cytosolic calcium serves as a functional read-out for many receptors and channels.

The test system of assay [10] is caspase-3/-7 in RPMI8226 cells. The assay is classed as cell-based, human.
The test system of assay [11] is caspase-3/-7 in THP1 cells. The assay is classed as cell-based, human.
The subject of assay [12] is intracellular calcium (Ca2+) in THP1 cells. Put plainly: intracellular calcium measurement (Fluo-4-NW), THP1. To be noted: THP1, IC50 dose, 4 h. It counts as cell-based, human. Here is the method:
as §3, §4

In assay [13] the test system is RPMI8226 cells. Put plainly: annexin V/propidium iodide apoptosis assay, RPMI8226. It counts as cell-based, human. As to conditions: RPMI8226, 48 h, 3 µM, annexin V/PI.
Description: as §1, §2

The next assay relates to caspase-9 in THP1 cells. The assay is classed as cell-based, human.
A further assay deals with HL60 cells. Nature of the assay: annexin V/propidium iodide apoptosis assay, HL60. The assay is classed as cell-based, human. To be noted: HL60, 48 h, 0.7 μM, annexin V/PI.
Description: as §1, §2

Where two headings read alike, the source gives them in different places.

With `CCCN(C=NC(Cc1ccc(N(CCCl)CCCl)cc1)C(=O)O)CCC` (centres unmarked) [DIPR-MEL], the IC50 in assay [1] (Homo sapiens, THP-1, 48 h) is greater than 30000 nM; in assay [2] (Homo sapiens, RPMI-8226, 48 h), greater than 30 µM; in [3] (Homo sapiens, HL-60, 48 h) it was greater than 30000 nM.
Consider `CCCN(C=NC(Cc1ccc(N(CCCl)CCCl)cc1)C(=O)OCC)CCC` (centres unmarked) [EE-DIPR-MEL], for which the IC50 in assay [1] (Homo sapiens, THP-1, 48 h) was 690 nM; in assay [2] (Homo sapiens, RPMI-8226, 48 h), 4.85 ± 0.195 µM; in [2], 5.94 µM; in assay [3] (Homo sapiens, HL-60, 48 h) it was 1050 nM. Moreover, in the assay with THP1 cells [4], the “DNA damage (tail DNA), THP1” value is ~ 7%. For the same compound, the “late apoptotic cells, THP1” value with THP1 cells [5] was “comparable to that of the unmodified drug”. Besides, the “DNA damage (tail DNA), RPMI8226” value in the assay with RPMI8226 cells [6] is “comparable to that of melphalan”.
Consider `CCOC(=O)C(N)Cc1ccc(N(CCCl)CCCl)cc1` (centres unmarked) [EE-MEL], for which the IC50 in assay [1] was 350 nM; in assay [8], 2.2 ± 0.25 µM; in assay [2], 1.17 µM; in assay [3], 700 nM. The “Caspase 3 activity HL-60, 24 h” value in assay [7] turned out to be 1225.64 ± 155.22%. The “DNA damage (tail DNA), THP1” value in the assay with THP1 cells [4] is on record as ~ 15%. The “fold increase of intracellular calcium, HL60, 24 h” value in assay [9] was “approx. 2 fold”. Besides, the “DNA damage (tail DNA), RPMI8226” value with RPMI8226 cells [6] is ~ 38%. Besides, the “Caspase 3 activity RPMI8226, 24 h” value in [10] came out at 656.19 ± 221.7%. Besides, the “Caspase 3 activity THP1, 24 h” value in assay [11] amounted to 788.85 ± 83.40%.
Turning to `CCOC(=O)C(Cc1ccc(N(CCCl)CCCl)cc1)N=CN1CCOCC1` (centres unmarked) [EE-MOR-MEL], the IC50 came out at 40 nM in [1] (Homo sapiens, THP-1, 48 h); 3.13 µM in [2] (Homo sapiens, RPMI-8226, 48 h); 320 nM in [3] (Homo sapiens, HL-60, 48 h). In addition, in assay [7], the “Caspase 3 activity HL-60, 24 h” value is reported as 1127.68 ± 39.24%. Moreover, the “DNA damage (tail DNA), THP1” value with THP1 cells [4] is ~ 13%. Moreover, the “fold increase of intracellular calcium ions, THP1” value in assay [12] is reported as “approx. 2.8 fold”. Besides, in [11], the “Caspase 3 activity THP1, 24 h” value stood at 981.93 ± 51.79%.
Turning to `CCCN(C=NC(Cc1ccc(N(CCCl)CCCl)cc1)C(=O)OC)CCC` (centres unmarked) [EM-DIPR-MEL], the IC50 in assay [1] (Homo sapiens, THP-1, 48 h) came to 410 nM; in [2] (Homo sapiens, RPMI-8226, 48 h), 5.94 ± 0.65 µM; in [2], 4.85 µM; in assay [3] (Homo sapiens, HL-60, 48 h), 850 nM. In addition, in the assay on THP1 cells [4], the “DNA damage (tail DNA), THP1” value was ~ 7%. In addition, the “late apoptotic cells, THP1” value in the assay with THP1 cells [5] is listed as “comparable to that of the unmodified drug”. In addition, in the assay with RPMI8226 cells [6], the “DNA damage (tail DNA), RPMI8226” value was “comparable to that of melphalan”.
On to `COC(=O)C(Cc1ccc(N(CCCl)CCCl)cc1)N=CN1CCOCC1` (centres unmarked) [EM-MOR-MEL], for which the IC50 in assay [1] (Homo sapiens, THP-1, 48 h) came to 70 ± 4 nM; in [8] (PBMC, 48 h) it was 6.41 ± 0.85 µM; in [2] (Homo sapiens, RPMI-8226, 48 h), 3.6 µM; in assay [3] (Homo sapiens, HL-60, 48 h), 490 ± 98 nM. For the same compound, the “DNA damage (tail DNA), THP1” value in the assay on THP1 cells [4] is ~ 13%.
Take `N[C@@H](Cc1ccc(N(CCCl)CCCl)cc1)C(=O)O` [MEL, melphalan, reference compound]: the IC50 turned out to be 6260 nM in assay [1] (Homo sapiens, THP-1, 48 h); 8.9 µM in [2] (Homo sapiens, RPMI-8226, 48 h); 3780 nM in assay [3] (Homo sapiens, HL-60, 48 h). Besides, the “Caspase 3 activity HL-60, 24 h” value in assay [7] is 736.92 ± 105.48%. Further, the “level of intracellular calcium, THP1” value in assay [12] (control = 100%) stood at 131.27 ± 10.08%. Also, the “late apoptotic cells, THP1” value in the assay with THP1 cells [5] is reported as roughly 17%. Besides, the “late apoptotic cells, RPMI8226” value in the assay with RPMI8226 cells [13] was “approximately 25%”. In the assay with caspase-9 in THP1 cells, the “Caspase 9 activity THP1, 24 h” value was determined as 316.5 ± 17.31%. In assay [10], the “Caspase 3 activity RPMI8226, 24 h” value turned out to be 463.75 ± 64.5%. Further, in the assay on HL60 cells, the “late apoptotic cells, HL60” value is on record as roughly 35%. Further, in assay [11], the “Caspase 3 activity THP1, 24 h” value was 429.08 ± 48.10%.
With `O=C(O)C(Cc1ccc(N(CCCl)CCCl)cc1)N=CN1CCOCC1` (centres unmarked) [MOR-MEL], the IC50 is greater than 30000 nM in assay [1] (Homo sapiens, THP-1, 48 h); greater than 30 µM in [2] (Homo sapiens, RPMI-8226, 48 h); greater than 30000 nM in assay [3] (Homo sapiens, HL-60, 48 h).
